Test results from patent US9938335B2, “Glucagon and GLP-1 co-agonist compounds” (Eli Lilly and Company, priority 2015, dated 2018).
Marks after values point to notes of the source that are not given here.

What was measured:
[1] = tested on: DIO mice (C57BL/6); test: Oral Glucose Tolerance Test (OGTT) in DIO mice; format: in vivo, mouse; settings: for Glucose AUC (% of vehicle): male DIO mice, OGTT (2 g/kg) 16 hours post injection
Method: Diet-induced obese (DIO) mouse model is a model of insulin resistance. Five to six months old male DIO mice (C57BL/6) from Taconic Biosciences are used in this study. Animals are individually housed in a temperature-controlled (24° C.) facility with a 12 hour light/dark cycle (lights on 06:00), and free access to food and water. The acclimation period to the facility is two weeks. The day before the study, animals are randomized into groups based on their body weight. That same afternoon, animals are fasted in clean cages and dosed with vehicle (40 mM Tris-HCl, pH 8.0) or test articles by subcutaneous injection. The following morning, 16 hours post the peptide injection, fasting body weights are obtained to calculate glucose doses. Blood samples are taken to measure time zero glucose. Animals are then given an oral gavage of glucose (2 g/kg). Two glucose readings via glucometers were obtained at 15, 30, 60 and 120 minutes post oral glucose. The average of two glucose readings is reported at each time point and an area under the curve is calculated. Statistics were analyzed using ANOVA with Dunnett's comparison by JMP 6; significance is denoted at p≤0.05 vs. vehicle.

[2] = tested on: STZ-treated DIO mice (C57BL/6); test: OGTT in Streptozotocin (STZ)-treated DIO mice; format: in vivo, mouse; settings: for Glucose AUC (% of vehicle): male STZ mice, OGTT (2 g/kg) 16 hours post injection
Method: STZ-treated mouse model is a model of early diabetes. Five to six months old male DIO mice (C57BL/6) from Taconic Biosciences are used in this study. Animals are individually housed in a temperature-controlled (24° C.) facility with a 12 hour light/dark cycle (lights on 6:00), and free access to food and water. After two weeks acclimation to the facility, mice are injected intraperitoneally with 50 mg/kg of STZ on Tuesday and Friday. Two weeks post the injection, animals with glucose levels between 180-300 mg/dL at 09:00 are selected for the OGTT study. The day before the study, animals are randomized into groups based on body weight and their glucose levels. Animals are treated with vehicle or testing articles by subcutaneous injection just prior to food removal overnight (16:00). The following morning at 08:00, 16 hours post compound injection, blood samples are taken to measure time zero glucose. Animals are given an oral dose of glucose of 2 g/kg. Glucose is measured 15, 30, 60, and 120 minutes post the oral glucose challenge. Statistics are analyzed using ANOVA with Dunnett's comparison by JMP 6. Significance is denoted at p≤0.05 vs. vehicle.

SMILES: CC(C)C[C@H](NC(=O)[C@H](CC(C)C)NC(=O)[C@H](Cc1c[nH]c2ccccc12)NC(=O)[C@H](CCC(=O)O)NC(=O)[C@@H](NC(=O)[C@H](Cc1ccccc1)NC(=O)[C@H](CCC(=O)O)NC(=O)[C@H](CCCCNC(=O)COCCOCCNC(=O)COCCOCCNC(=O)CC[C@H](NC(=O)CCCCCCCCCCCCCCCCCCC(=O)O)C(=O)O)NC(=O)[C@H](C)NC(=O)[C@H](CCCCN)NC(=O)[C@H](CCCCN)NC(=O)[C@H](CCC(=O)O)NC(=O)[C@H](CC(=O)O)NC(=O)[C@H](CC(C)C)NC(=O)[C@H](Cc1ccc(O)cc1)NC(=O)[C@H](CCCCN)NC(=O)[C@H](CO)NC(=O)[C@H](Cc1ccc(O)cc1)NC(=O)[C@H](CC(=O)O)NC(=O)[C@H](CO)NC(=O)[C@@H](NC(=O)[C@H](Cc1ccccc1)NC(=O)[C@@H](NC(=O)CNC(=O)[C@H](CCC(N)=O)NC(=O)C(C)(C)NC(=O)[C@@H](N)Cc1c[nH]cn1)[C@@H](C)O)[C@@H](C)O)C(C)C)C(=O)N[C@@H](CCC(=O)O)C(=O)NCC(=O)NCC(=O)N1CCC[C@H]1C(=O)N[C@@H](CO)C(=O)N[C@@H](CO)C(=O)NCC(N)=O [Compound 2]
- Glucose AUC (% of vehicle) ([1]; 1 nmol/kg sc): 76* % of vehicle
- Glucose AUC (% of vehicle) ([1]; 3 nmol/kg sc): 50* % of vehicle
- Glucose AUC (% of vehicle) ([1]; 10 nmol/kg sc): 39* % of vehicle
- glucose during the tolerance test ([1]; male DIO mice, 1, 3 and 10 nmol/kg): dose-dependent decrease in glucose
- Glucose AUC (% of vehicle) ([2]; 1 nmol/kg sc): 70* % of vehicle
- Glucose AUC (% of vehicle) ([2]; 3 nmol/kg sc): 48* % of vehicle
- Glucose AUC (% of vehicle) ([2]; 10 nmol/kg sc): 35* % of vehicle
- glucose excursion during the tolerance test ([2]; male STZ mice, 1, 3 and 10 nmol/kg): dose dependent decrease in glucose excursion
